Results: EP1001769B1, “SOLUBLE PRODRUGS OF PACLITAXEL” (BAKER NORTON PHARMACEUTICALS, INC., priority 1997, dated 1998)
Counter-ions that a name gives are not always drawn.

Columns and labels:
Assay type in all cases: physicochemical
[1] = Stability of paclitaxel-2'-MPA solution in water/polyethylene glycol, analysed by HPLC
Protocol: The onium salt paclitaxel-2'-MPA was prepared by the method of Nicolaou et al., Angew. Chim. Int. Engl., 33:1583-1587 ([…]). A 2.40 mg/ml solution of the paclitaxel-2'-MPA was prepared by dissolving the salt (10.2 mg) in a solution of water (3.024 ml) and polyethylene glycol (1.234 ml). Samples of this solution were frozen. The frozen samples were slowly warmed to room temperature and homogenized with CH3CN (50 µl). An aliquot (50 µl) was removed and diluted to a final volume of 200 µl with deionized H2O and analyzed via HPLC (20 µl injection).

[2] = as above; details: freshly prepared solution 0.53 mg/ml in CH3CN, HPLC trace
[3] = Aqueous stability of the prodrug in H2O and 0.2M NaCl
Protocol: Aqueous Stability: The stability of the prodrug in H2O and 0.2M NaCI was examined at both room temperature and under refrigerated conditions. Samples in H2O (0.54 mg in 2 ml) and NaCI (0.57 mg in 2 ml) at room temperature were examined at two minute time intervals (0 through 12 minutes), 2 hours and 24 hours. […] At 4°C the product concentration was unchanged at 24 and 48 hours but decreased to 90% after 72 hours. […] At 4°C the product concentration was unchanged at 24 hours, was 91% at 48 hours and was 88% at 72 hours.

[4] = Extraction from water into CH2Cl2; details: about 1 mg in 1 ml water stirred with 1 ml CH2Cl2; residue of organic phase weighed
Protocol: Extraction: Three samples (1.2, 1.0 and 0.98 mg) were dissolved in water (1 ml) and vigorously stirred with CH2Cl2 (1 ml). The organic phase was transferred to a clean, tared vial and concentrated in vacuo. The residue was weighed and compared to the theoretical input to gauge the effectiveness of the extraction procedure. Average return for this extraction was about 44% of theoretical.

[5] = Solubility in deionized water; details: 0.97 and 0.80 mg in 0.5 ml deionized water, sonicated about 1 minute; 1.54 mg sample needed additional 0.1 ml; upper limit not attained
Protocol: Solubility: Deionized water (0.5 ml) was added to three samples of the 2'-MPM (1.54 mg, 0.97 mg and 0.80 mg) and the flask sonicated for approximately one (1) minute.

[6] = freshly prepared solution 0.53 mg/ml in CH3CN, HPLC trace

CC(=O)O[C@H]1C(=O)[C@@]2(C)[C@H]([C@H](OC(=O)c3ccccc3)[C@]3(O)C[C@H](OC(=O)[C@H](Oc4cccc[n+]4C)[C@@H](NC(=O)c4ccccc4)c4ccccc4)C(C)=C1C3(C)C)[C@]1(OC(C)=O)CO[C@@H]1C[C@@H]2O [2'-MPA, Paclitaxel 2'-Methylpyridinium Acetate]
2'-MPA % ([1]; 4°C, 1 Hour): 85% | Paclita. % ([1]; 4°C, 1 Hour): 15% | 2'-MPA % ([1]; 4°C, 2 Weeks): 79% | Paclita. % ([1]; 4°C, 2 Weeks): 9% | Unkno. % ([1]; 4°C, 2 Weeks): 10% | 2'-MPA % ([1]; 4°C, 6 Hours): 75% | Paclita. % ([1]; 4°C, 6 Hours): 11% | Unkno. % ([1]; 4°C, 6 Hours): 14% | 2'-MPA % ([1]; 4°C, 18 Hours): 73% | Paclita. % ([1]; 4°C, 18 Hours): 10% | Unkno. % ([1]; 4°C, 18 Hours): 17% | 2'-MPA % ([1]; 4°C, 18 Hours, listed as MPA salt): 73% | 2'-MPA % ([1]; 4°C, 42 Hours): 79% | Paclita. % ([1]; 4°C, 42 Hours): 9% | Unkno. % ([1]; 4°C, 42 Hours): 12% | 2'-MPA % ([1]; 4°C, 66 Hours): 73% | Paclita. % ([1]; 4°C, 66 Hours): 11% | Unkno. % ([1]; 4°C, 66 Hours): 16% | 2'-MPA % ([1]; Room Temperature, 1 Hour): 78% | Paclita. % ([1]; Room Temperature, 1 Hour): 14% | Unkno. % ([1]; Room Temperature, 1 Hour): 8% | 2'-MPA % ([1]; Room Temperature, 6 Hours): 78% | Paclita. % ([1]; Room Temperature, 6 Hours): 14% | Unkno. % ([1]; Room Temperature, 6 Hours): 8% | 2'-MPA % ([1]; Room Temperature, 18 Hours): 69% | 2'-MPA % ([1]; Room Temperature, 42 Hours): 73% | Paclita. % ([1]; Room Temperature, 42 Hours): 17% | Unkno. % ([1]; Room Temperature, 42 Hours): 10% | 2'-MPA % ([1]; Room Temperature, 66 Hours): 79% | Paclita. % ([1]; Room Temperature, 66 Hours): 13% | Unkno. % ([1]; Room Temperature, 66 Hours): 8% | 2'-MPA % ([1]; Room Temperature, 90 Hours): 73% | Paclita. % ([1]; Room Temperature, 90 Hours): 15% | Unkno. % ([1]; Room Temperature, 90 Hours): 12% | 2'-MPA peak [1, 6]: 75% | Unknown peak [1, 6]: 10% | Paclitaxel peak [2]: 15%

CC(=O)O[C@H]1C(=O)[C@@]2(C)[C@H]([C@H](OC(=O)c3ccccc3)[C@]3(O)C[C@H](OC(=O)[C@H](Oc4cccc[n+]4C)[C@@H](NC(=O)c4ccccc4)c4ccccc4)C(C)=C1C3(C)C)[C@]1(OC(C)=O)CO[C@@H]1C[C@@H]2O [Paclitaxel 2'-MPM, Paclitaxel-2'-Methylpyridinium Mesylate]
product concentration ([3]; H2O, 4°C, 24 hours): unchanged | product concentration ([3]; H2O, 4°C, 48 hours): unchanged | product concentration ([3]; H2O, 4°C, 72 hours): 90% | product concentration ([3]; H2O, room temperature, 2 hours): relatively unchanged | product concentration ([3]; H2O, room temperature, 24 hours): 56% | stability in aqueous solution ([3]; aqueous solution, 4°C, 24 hours (summary of Example 2)): unchanged | stability in aqueous solution, degraded to ([3]; aqueous solution, 4°C, 72 hours (summary of Example 2)): 88-91% | product concentration ([3]; saline solution (0.2M NaCl), 4°C, 24 hours): unchanged | product concentration ([3]; saline solution (0.2M NaCl), 4°C, 48 hours): 91% | product concentration ([3]; saline solution (0.2M NaCl), 4°C, 72 hours): 88% | drop of product concentration ([3]; saline solution (0.2M NaCl), room temperature, 2 hours): 1-2% | product concentration ([3]; saline solution (0.2M NaCl), room temperature, 24 hours): 70% | product concentration ([3]; saline solution (0.2M NaCl), room temperature, first ten minutes): no apparent change | Average return for this extraction [4]: about 44 % of theoretical | Solubility [5]: Solution was attained
